Legend:
[1] = biological target: T1, GST tagged PIP4KtypeIIA (Homo sapiens, UniProt P48426); experiment: ADP-glo kinase assay PIP4K 2A (PIP4KtypeIIA inhibition assay); assay type: biochemical; conditions: Table 3; compounds listed under IC50 range headings; 10 uM ATP, 0.5 nM PIP4KIIA
T1 construct: made in house; host or cells: E. coli
T1 sequence (P48426 1-406): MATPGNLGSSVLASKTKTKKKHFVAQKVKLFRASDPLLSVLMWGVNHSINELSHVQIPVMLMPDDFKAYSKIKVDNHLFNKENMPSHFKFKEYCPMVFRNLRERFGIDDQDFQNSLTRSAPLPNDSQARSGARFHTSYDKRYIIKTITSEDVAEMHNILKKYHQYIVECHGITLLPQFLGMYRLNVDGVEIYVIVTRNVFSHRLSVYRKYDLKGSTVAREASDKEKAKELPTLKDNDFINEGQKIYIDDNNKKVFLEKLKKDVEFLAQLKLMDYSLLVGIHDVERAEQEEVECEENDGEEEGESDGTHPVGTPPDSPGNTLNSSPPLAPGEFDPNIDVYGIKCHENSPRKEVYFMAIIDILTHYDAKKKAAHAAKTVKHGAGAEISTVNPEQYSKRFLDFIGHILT
Description: GST tagged PIP4KtypeIIA and B enzymes were overexpressed in E. Coli and purified to >80% homogeneity. Phosphatidyl inositol-5-phosphate (PI5P, Cat. #850152, Avanti Polar Lipids Inc.) was used as the lipid substrate and phosphatidyl ethanolamine (DOPE 18:1, Cat. #850725, Avanti Polar Lipids Inc.) was used as the carrier lipid for assays. Ultrapure ATP and GTP was purchased from Bellbrooke Labs. ADP Glo reagents were obtained from Promega. Transcreener FI reagent was obtained from Bellbrooke labs.
1. HEPES buffer mix: 200 mM HEPES pH 7.4, 50 mM MgCl2, 0.05% v/v triton×100
2. HNE buffer: 20 mM HEPES, pH 7.4, 100 mM NaCl, 0.5 mM EGTA
3. H:E buffer: 30 mM HEPES, pH 7.4, 1 mM EGTA
Enzyme preparation: GST-tagged PIP4KtypeIIA (5 uL, 1.43 mg/mL) was diluted (1:10) to 50 uL using HNE buffer. From the 1:10 diluted stock, a 6.4 uL aliquot was diluted further to 5 mL using HNE buffer to yield 5× enzyme stock (2.5 nM).
Lipid Preparation: In a 10 mL pyrex glass vial, lug of PI5P and lug of DOPE were suspended in 2.5 mL of HEPES buffer mix and 2.5 mL of H:E buffer. The contents were mixed and sonicated for 3 min to yield a translucent lipid stock.
Compound Preparation: Compounds were stored as 5 mM stocks in neat DMSO as room temperature in glass vials. 5 mM stocks were diluted to 2 mM and then serially diluted (3×) in neat DMSO in 96 well polypropylene plates. From the serially diluted stocks, 3 uL was delivered into 250 uL of 25% DMSO (in water) to generate 5× compound stocks. Typically, the highest compound conc. was 24 uM.
The assay volume was kept at 25 uL. To each well of the reaction plate, 10 uL of lipid stock (1:1 ratio PI5P:DOPE) was delivered. This was followed by the addition of 5 uL of compound in 25% DMSO. Then, to each well, 5 uL of 2.5 nM (5×) typeIIA enzyme was delivered. The contents were mixed well and incubated for 1 h at 27 C. After 1 h, reaction was initiated by adding 5 uL of 50 uM ATP and the contents were mixed well with a multi-channel pipetteman. The final concentration of the reagents are as follows: 50 mM HEPES, pH 7.3, 10 mM MgCl2, 20 mM NaCl, 0.01% v/v triton-X100, 5% DMSO, 10 uM ATP, 80 uM (2 ug) PI5P, 2 ug DOPE, and 0.5 nM PIP4KIIA. Typically, the highest conc. of compounds was 4.8 uM and the lowest conc. was 0.
After 1 hr, the reaction was quenched by adding 25 uL of ADP Glo reagent. The contents were incubated for 1 hr. Afterwards, 50 uL of kinase detection reagent was delivered. The contents were incubated for another hour. The luminescence was read using Molecular Devices Paradigm plate reader. […] The blanks were averaged and subtracted from all other wells. Using a calibration curve, RLU was converted to uM ADP (product). IC50 was calculated by plotting the residual activity (expressed as % No inhibitor control) vs. log [Inh. conc.]

[2] = biological target: T2, GST tagged PIP4KtypeIIB (Homo sapiens, UniProt P78356); experiment: Trans-FI P kinase assay PIP4K2B (PIP4KtypeIIB inhibition assay); assay type: biochemical; conditions: Table 4; compounds listed under IC50 range headings; 100 uM GTP, 5 nM PIP4KIIB; read-out: Trans-FI P kinase assays: PIP4K2B IC50
T2 construct: made in house; host or cells: E. coli
T2 sequence (P78356 1-416): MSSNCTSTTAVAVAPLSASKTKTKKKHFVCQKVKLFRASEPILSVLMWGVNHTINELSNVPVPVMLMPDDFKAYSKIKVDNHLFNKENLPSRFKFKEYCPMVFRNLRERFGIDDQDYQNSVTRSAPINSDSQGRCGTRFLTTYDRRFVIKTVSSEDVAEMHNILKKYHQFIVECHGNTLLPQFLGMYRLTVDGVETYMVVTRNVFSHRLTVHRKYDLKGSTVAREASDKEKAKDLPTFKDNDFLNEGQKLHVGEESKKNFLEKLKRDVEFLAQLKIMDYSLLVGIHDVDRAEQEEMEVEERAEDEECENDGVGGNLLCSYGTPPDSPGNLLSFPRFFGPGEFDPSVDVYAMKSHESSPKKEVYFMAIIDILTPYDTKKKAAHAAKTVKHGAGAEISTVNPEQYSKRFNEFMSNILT
Procedure, shortened: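 Purified GST-PIP4KIIB (5 nM final), 1 h preincubation with compound at 27 C, then 2 h reaction with 100 uM GTP and 80 uM PI5P plus DOPE carrier lipid in pH 7.3 HEPES/MgCl2/Triton buffer with 5% DMSO. GDP read by Transcreener FI fluorescence against a calibration curve; IC50 from % no-inhibitor activity vs log concentration.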

| IC50 [1] [nM] | IC50 [2] [nM] | Structure (SMILES) |
| --- | --- | --- |
| 1000 to 2500 | 1000 to 2500 | Cn1c(C(N)=O)cc2c(-c3cncc(-c4ccc(N5CCCC5=O)cc4)c3)cn(C)c2c1=O [Example 263, 1,6-dimethyl-7-oxo-3-(5-(4-(2-oxopyrrolidin-1-yl)phenyl)pyridin-3-yl)-6,7-dihydro-1H-pyrrolo[2,3-c]pyridine-5-carboxamide] |
| 2500 to 5000 | 100 to 1000 | CN(C)C(=O)c1cnc2c(c1)c(-c1cncc(-c3ccc(N4CCCC4=O)cc3)c1)c(C1CC1)n2C [Example 262, 2-cyclopropyl-N,N,1-trimethyl-3-(5-(4-(2-oxopyrrolidin-1-yl)phenyl)pyridin-3-yl)-1H-pyrrolo[2,3-b]pyridine-5-carboxamide] |
| 100 to 1000 | 100 to 1000 | Cc1c(-c2ccc(N3CCCC3=O)cc2)cncc1-c1cn(C)c2ncc([C@H](C)O)cc12 (single isomer, unassigned) [196(S)] |
| 100 to 1000 | 100 to 1000 | CN(C)C(=O)c1cc2c(-c3cncc(-c4ccc(N5CCCC5=O)cc4)c3)cn(C)c2c(=O)n1C [Example 260, N,N,1,6-tetramethyl-7-oxo-3-(5-(4-(2-oxopyrrolidin-1-yl)phenyl)pyridin-3-yl)-6,7-dihydro-1H-pyrrolo[2,3-c]pyridine-5-carboxamide] |
| 100 to 1000 | 10 to 100 | CN(C)C(=O)c1ccc(-c2cc(-c3ccnc4[nH]c(C(N)=O)cc34)cnc2N)nc1 [Example 143, 4-(2′-amino-5-(dimethylcarbamoyl)-[2,3′-bipyridin]-5′-yl)-1H-pyrrolo[2,3-b]pyridine-2-carboxamide] |
| 100 to 1000 | 10 to 100 | C[C@@H]1CC(=O)N(c2ccc(-c3cncc(-c4ccnc5c4cc4n5CCN(C)C4=O)c3)cc2)C1 [Example 198, (R)-7-methyl-4-(5-(4-(4-methyl-2-oxopyrrolidin-1-yl)phenyl)pyridin-3-yl)-8,9-dihydropyrido[3′,2′:4,5]pyrrolo[1,2-a]pyrazin-6(7H)-one] |
| 100 to 1000 | 100 to 1000 | CC(C)c1[nH]c2ncc(C(=O)N(C)C)cc2c1-c1cncc(-c2ccc(N3CCCC3=O)cc2)c1 [Example 269, 2-isopropyl-N,N-dimethyl-3-(5-(4-(2-oxopyrrolidin-1-yl)phenyl)pyridin-3-yl)-1H-pyrrolo[2,3-b]pyridine-5-carboxamide] |
| 10 to 100 | 10 to 100 | CC(O)c1cnc2c(c1)c(-c1cncc(-c3ccc(N4CCCC4=O)cc3)c1)c1n2CCC1 (centres unmarked) [Example 351, 1-(4-(5-(3-(1-hydroxyethyl)-7,8-dihydro-6H-pyrido[3,2-b]pyrrolizin-5-yl)pyridin-3-yl)phenyl)pyrrolidin-2-one] |
| 2500 to 5000 | 1000 to 2500 | O=C1CCCN1c1ccc(-c2cncc(-c3ncnc4nc(C5CCC5)[nH]c34)c2)cc1 [Example 289, 1-(4-(5-(8-cyclobutyl-7H-purin-6-yl)pyridin-3-yl)phenyl)pyrrolidin-2-one] |
| 100 to 1000 | 100 to 1000 | O=C1CCCN1c1ccc(-c2cncc(-n3ccc4ncccc43)c2)cc1 [Example 253, 1-(4-(5-(1H-pyrrolo[3,2-b]pyridin-1-yl)pyridin-3-yl)phenyl)pyrrolidin-2-one] |
| 100 to 1000 | 100 to 1000 | O=C1CCCN1c1ccc(-c2cncc(-c3csc4ncccc34)c2)cc1 [Example 292, 1-(4-(5-(thieno[2,3-b]pyridin-3-yl)pyridin-3-yl)phenyl)pyrrolidin-2-one] |
| 100 to 1000 | 2500 to 5000 | O=C(Nc1ccc(-c2cncc(-c3ccnc4[nH]ncc34)c2)cc1)C(=O)N1CC2CCC1C2 (centres unmarked) [Example 203, N-(4-(5-(1H-pyrazolo[3,4-b]pyridin-4-yl)pyridin-3-yl)phenyl)-2-(2-azabicyclo[2.2.1]heptan-2-yl)-2-oxoacetamide] |
| 100 to 1000 | 10 to 100 | O=C(NCCc1ccc[nH]1)c1cc2c(-c3cncc(-c4ccc(N5CCCC5=O)cc4)c3)ccnc2[nH]1 [Example 261, N-(2-(1H-pyrrol-2-yl)ethyl)-4-(5-(4-(2-oxopyrrolidin-1-yl)phenyl)pyridin-3-yl)-1H-pyrrolo[2,3-b]pyridine-2-carboxamide] |
| 100 to 1000 | 100 to 1000 | O=C(c1cc2c(-c3cncc(-c4ccc(N5CCCC5=O)cc4)c3)ccnc2[nH]1)N1CCOCC1 [Example 229, 1-(4-(5-(2-(morpholine-4-carbonyl)-1H-pyrrolo[2,3-b]pyridin-4-yl)pyridin-3-yl)phenyl)pyrrolidin-2-one] |
| 100 to 1000 | 1000 to 2500 | Cc1cc(N2CCCC2=O)ccc1-c1cncc(-c2cn(C)c3ncc([C@@H](C)O)cc23)c1 (single isomer, unassigned) [197(R)] |
| 100 to 1000 | 100 to 1000 | C[C@H](O)c1cnc2c(c1)c(-c1cncc(-c3ccc(N4CCCC4=O)cc3)c1)cn2C [Example 294, (S)-1-(4-(5-(5-(1-hydroxyethyl)-1-methyl-1H-pyrrolo[2,3-b]pyridin-3-yl)pyridin-3-yl)phenyl)pyrrolidin-2-one] |
| 10 to 100 | 100 to 1000 | CN(C)C(=O)c1cnc2occ(-c3cncc(-c4ccc(N5CCCC5=O)cc4)c3)c2c1 [Example 282, N,N-dimethyl-3-(5-(4-(2-oxopyrrolidin-1-yl)phenyl)pyridin-3-yl)furo[2,3-b]pyridine-5-carboxamide] |
| 100 to 1000 | 1000 to 2500 | Cc1cc(N2CCCC2=O)ccc1-c1cncc(-c2cn(C)c3ncc([C@H](C)O)cc23)c1 (single isomer, unassigned) [197(S)] |
| 100 to 1000 | 100 to 1000 | Cc1nn2c(=O)c(CCO)c(C)[nH]c2c1-c1cncc(-c2ccc(N3CCCC3=O)cc2)c1 [Example 284, 6-(2-hydroxyethyl)-2,5-dimethyl-3-(5-(4-(2-oxopyrrolidin-1-yl)phenyl)pyridin-3-yl)pyrazolo[1,5-a]pyrimidin-7(4H)-one] |
| 10 to 100 | 10 to 100 | O=C1CCCN1c1ccc(-c2cncc(-c3n[nH]c4ncc(C5CC5)cc34)c2)cc1 [Example 283, 1-(4-(5-(5-cyclopropyl-1H-pyrazolo[3,4-b]pyridin-3-yl)pyridin-3-yl)phenyl)pyrrolidin-2-one] |
| 100 to 1000 | – | Cc1c(-c2ccc(N3CCCC3=O)cc2)cncc1-c1cn(C)c2ncc(C(C)O)cc12 (centres unmarked) [Example 196, 1-(4-(5-(5-(1-hydroxyethyl)-1-methyl-1H-pyrrolo[2,3-b]pyridin-3-yl)-4-methylpyridin-3-yl)phenyl)pyrrolidin-2-one] |
